The source of these data is patent US7230002B2, “Dipeptidyl peptidase IV inhibitors; processes for their preparation and compositions thereof” (Glenmark Pharmaceuticals Ltd., priority 2004, dated 2007).

Each structure is given as a SMILES string. Where a name gives a salt, the structure may show the parent alone.

The target in this assay is T1, human recombinant Dipeptidyl peptidase IV enzyme (Homo sapiens, UniProt P27487).
T1 construct: purchased R & D Systems
Put plainly: In-vitro DPP-IV assay (cleavage of Gly-Pro-AMC). The following applies: for IC50: n = 3, substrate Gly-Pro-AMC, 30° C., 30 minutes, read-out: DPP-IV inhibition IC50; for inhibition at 0.3 µM: at 300 nM, n = 3, read-out: DPP-IV inhibition, percent inhibition at 300 nM. It is filed as biochemical. As for the experimental part:
Protocol for In-Vitro DPP-IV Assay
DPPIV activity was determined by the cleavage rate of 7-amino-4-methyl coumarin (AMC) from synthetic substrate Glycyl-Prolyl-AMC. In brief, the assay was conducted by adding 10 ng of human recombinant Dipeptidyl peptidase IV enzyme (DPPIV, available commercially from R & D Systems) in 50 μl of the assay buffer (25 mM Tris, pH 7.4, 140 mM NaCl, 10 mM KCl, 1% BSA) to 96 well black flat bottom microtiter plates. The reaction was initiated by adding 50 μl of 100 μM substrate Gly-Pro-AMC. The incubation was carried out in the kinetic mode at 30° C. for 30 minutes. Fluorescence was measured using Fluorostar at excitation filter of 380 nm and emission filter of 460 nm). Test compounds and solvent controls were added as 1 μl additions. A standard curve of free amino methyl coumarin (AMC) was generated using 0–100 μM AMC in the assay buffer. The curve generated, which was linear was used for the interpolation of catalytic activity.
Test compounds dissolved in DMSO at 5–6 concentrations were tested in duplicate along with the solvent control and blank samples. Percent inhibition was calculated at each concentration with respect to the solvent control sample (no test compound added). IC50 values were calculated from 3 experiments using the prism software.

T1 sequence (P27487 whole entry): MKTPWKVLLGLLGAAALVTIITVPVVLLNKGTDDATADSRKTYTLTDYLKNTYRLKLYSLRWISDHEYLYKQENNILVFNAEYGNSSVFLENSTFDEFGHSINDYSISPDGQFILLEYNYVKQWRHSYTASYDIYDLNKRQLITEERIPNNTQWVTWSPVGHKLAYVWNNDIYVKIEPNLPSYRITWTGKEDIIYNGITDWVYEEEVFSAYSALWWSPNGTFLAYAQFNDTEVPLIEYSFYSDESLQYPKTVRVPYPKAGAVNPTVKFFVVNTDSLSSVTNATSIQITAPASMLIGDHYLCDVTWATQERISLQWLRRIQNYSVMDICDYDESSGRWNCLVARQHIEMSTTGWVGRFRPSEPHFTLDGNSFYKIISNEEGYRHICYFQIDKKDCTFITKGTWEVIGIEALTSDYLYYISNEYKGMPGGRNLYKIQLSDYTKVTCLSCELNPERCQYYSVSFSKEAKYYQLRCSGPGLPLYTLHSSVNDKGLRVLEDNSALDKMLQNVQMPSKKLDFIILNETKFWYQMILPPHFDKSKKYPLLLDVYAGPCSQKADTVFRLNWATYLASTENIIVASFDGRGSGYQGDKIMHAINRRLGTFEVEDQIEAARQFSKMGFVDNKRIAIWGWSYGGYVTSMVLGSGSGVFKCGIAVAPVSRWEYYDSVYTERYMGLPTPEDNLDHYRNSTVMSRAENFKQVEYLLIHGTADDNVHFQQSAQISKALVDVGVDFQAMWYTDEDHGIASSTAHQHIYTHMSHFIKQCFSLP

What is called IC50 is the concentration needed to halve the response being measured. `N#Cc1ccc(NCC2CCC(NCC(=O)N3CSC[C@H]3C#N)C2)nc1` (mixture of isomers) [Example-16, (4S)-3-{2-(1SR,3RS)-3-[(5-Cyano-2-pyridylaminomethyl)cyclopentylamino]acetyl}-1,3-thiazolane-4-carbonitrile dihydrochloride]: the IC50 came to 2.76 nM.
Regarding `N#Cc1ccc(OC[C@H]2CC[C@@H](NCC(=O)N3CCC[C@H]3C#N)C2)cc1` [Example-47, (2S)-1-{2-[(3S,1R)-3-(4-Cyanophenoxymethyl)cyclopentylamino]acetyl}-pyrrolidine-2-carbonitrile], the 50% inhibitory concentration (IC50) amounted to 13.8 nM.
Same read-out and setting: under `N#C[C@@H]1CCCN1C(=O)CN[C@H]1CC[C@@H](CS(=O)(=O)c2ccccc2)C1` [Example-33, (2S)-1-{2-[(1S,3R)-3-Phenylsulfonylmethylcyclopentylamino]acetyl}-pyrrolidine-2-carbonitrile] stands 57.3 nM; under `N#Cc1ccc(NCC2CCC(NCC(=O)N3CCC[C@H]3C#N)C2)nc1` (mixture of isomers) [Example-5, 6-((1SR,3RS)-3-{2-[(2S)-2-Cyanopyrrolidin-1-yl]-2-oxoethylamino}cyclopentyl-methylamino)nicotinonitrile maleate], 10.3 nM; under `N#C[C@@H]1CCCN1C(=O)CN[C@@H]1CC[C@H](COc2ccc([N+](=O)[O-])cc2)C1` [Example-44, (2S)-1-{2-[(3S,1R)-3-(4-Nitrophenoxymethyl)cyclopentylamino]acetyl}-pyrrolidine-2-carbonitrile], 25.8 nM.
The same measure, in the same setting: the figure for `N#C[C@@H]1CCCN1C(=O)CN[C@H]1CC[C@@H](CSc2ccccc2)C1` [Example-32, (2S)-1-{2-[(1S,3R)-3-Phenylsulfanylmethylcycopentylamino]acetyl}-pyrrolidine-2-carbonitrile] is 37 nM; for `N#C[C@@H]1CCCN1C(=O)CNC1CCC(CNc2ccc([N+](=O)[O-])c(Cl)c2)C1` (mixture of isomers) [Example-23, (2S)-1-{2-[(3SR,1RS)-3-(3-Chloro-4-nitroanilinomethyl)cyclopentylamino]acetyl}-pyrrolidine-2-carbonitrile] it is 14.6 nM.
The same measure, in the same setting: the figure for `N#C[C@@H]1CCCN1C(=O)CN[C@H]1CC[C@@H](CSc2ccc(F)cc2)C1` [Example-34, (2S)-1-{2-[(1S,3R)-3-(4-Fluorophenylsulfanylmethyl)cyclopentylamino]acetyl}-pyrro-lidine-2-carbonitrile] is 26.1 nM.
By inhibition is commonly meant the drop in the measured response relative to a control, in per cent. Turning to `N#Cc1ccc(NCC2CCC(NCC(=O)N3CCCC3)C2)nc1` (racemic) [Example-1, cis-(±)-6-(3-[2-(1-Pyrrolidinyl)-2-oxoethylamino]cyclopentylmethylamino)nicotino-nitrile], the inhibition at 0.3 µM was determined as 6%.
Regarding `N#C[C@@H]1CCCN1C(=O)CN[C@H]1CC[C@@H](CNc2ncccn2)C1` [Example-21], the IC50 worked out at 6.74 nM.
With `N#Cc1ccc(OC[C@H]2CC[C@@H](NCC(=O)N3C[C@@H](F)C[C@H]3C#N)C2)cc1F` [Example-50, (2S,4S)-1-{2-[(3S,1R)-3-(4-Cyano-3-fluorophenoxymethyl)cyclopentylamino]acetyl}-4-fluoro-pyrrolidine-2-carbonitrile], the IC50 amounted to 2.56 nM.
As to `N#Cc1ccc(OC[C@H]2CC[C@@H](NCC(=O)N3CCC[C@H]3C#N)C2)c2oc3ccccc3c12` [Example-51, (2S)-1-{2-[(3S,1R)-3-(1-Cyanodibenzo[b,d]furan-4-yloxymethyl)cyclopentylamino]-acetyl}-pyrrolidine-2-carbonitrile], the inhibition at 0.3 µM is 25%.
For `N#Cc1ccc(NC[C@@H]2CC[C@@H](NCC(=O)N3CCC[C@H]3C#N)C2)nc1` (racemic) [Example-13, 6-((1RS,3RS)-3-{2-[(2S)-2-Cyanopyrrolidin-1-yl]-2-oxoethylamino}cyclopentyl-methylamino)nicotinonitrile], the IC50 stood at 12.1 nM.
On the same count and under the same terms, under `N#C[C@@H]1CCCN1C(=O)CN[C@@H]1CC[C@H](CNc2ncccn2)C1` [Example-20, (2S)-1-{2-[(3S,1R)-3-(2-Pyrimidinylaminomethyl)cyclopentylamino)acetyl}-pyrrolidine-2-carbonitrile] stands 41.3 nM.
On to `N#C[C@@H]1CCCN1C(=O)CN[C@@H]1CC[C@H](CS(=O)(=O)c2ccccc2)C1` [Example-31, (2S)-1-{2-[(3S,1R)-3-Phenylsulfonylmethylcyclopentylamino]acetytl}-pyrrolidine-2-carbonitrile], for which the IC50 is 91.8 nM.
As for `N#C[C@@H]1CCCN1C(=O)CN[C@@H]1CC[C@H](CNc2ccc([N+](=O)[O-])cc2F)C1` [Example-25, (2S)-1-{2-[(1R,3S)-3-(2-Fluoro-4-nitroanilinmethyl)cyclopentylamino]acetyl}-pyrrolidine-2-carbonitrile], the half-maximal inhibitory concentration (IC50) was 8.59 nM.
The same measure, in the same setting: under `N#C[C@@H]1CCCN1C(=O)CN[C@@H]1CC[C@H](CSc2ncccn2)C1` [Example-41, (2S)-1-{2-[(3S,1R)-3-(2-Pyrimidinylsulfanylmethyl)cyclopentylamino]acetyl}-pyrrol-idine-2-carbonitrile] stands 15.8 nM; under `N#Cc1ccc(NC[C@@H]2CC[C@@H](NCC(=O)N3CSC[C@H]3C#N)C2)nc1` (racemic) [Example-17, (4S)-3-{2-(1RS,3RS)-3-[(5-Cyano-2-pyridylaminomethyl)cyclopentylamino]acetyl}-1,3-thiazolane-4-carbonitrile dihydrochloride], 2.93 nM.
In the case of `N#C[C@@H]1CCCN1C(=O)CNC1CCC(COc2ccc([N+](=O)[O-])cc2)C1` (mixture of isomers) [Example-43, (2S)-1-{2-[(3SR,1RS)-3-(4-Nitrophenoxymethyl)cyclopentylamino]acetyl}-pyrro-lidine-2-carbonitrile], the IC50 worked out at 35.9 nM.
On the same count and under the same terms, the figure for `N#Cc1ccc(NC[C@@H]2CC[C@H](NCC(=O)N3CCC[C@H]3C#N)C2)nc1` [Example-10, 6-((1R,3S)-3-{2-[(2S)-2-Cyanopyrrolidin-1-yl]-2-oxoethylamino}cyclopentylmethyl-amino)nicotinonitrile] is 7.81 nM; for `N#C[C@@H]1CCCN1C(=O)CN[C@@H]1CC[C@H](CSc2nc3ccccc3[nH]2)C1` [Example-42, (2S)-1-{2-[(3S,1R)-3-(1H-Benzo[d]imidazol-2-ylsulfanylmethyl)cyclopentylamino]-acetyl}-pyrrolidine-2-carbonitrile] it is 26.8 nM.
Still for that read-out and setting: under `N#Cc1ccc(NC[C@@H]2CC[C@H](NCC(=O)N3CCC[C@H]3C#N)C2)nc1` [Example-11, 6-((1R,3S)-3-{2-[(2S)-2-Cyanopyrrolidin-1-yl]-2-oxoethylamino}cyclopentylmethyl-amino)nicotinonitrile dihydrochloride] stands 13.9 nM; under `N#C[C@@H]1CCCN1C(=O)CNC1CCC(CNc2ccc([N+](=O)[O-])cc2F)C1` (mixture of isomers) [Example-24, (2S)-1-{2-[(3SR,1RS)-3-(2-Fluoro-4-nitroanilinomethyl)cyclopentylamino]acetyl}-pyrrolidine-2-carbonitrile], 6.29 nM; under `N#Cc1ccc(NCC2CCC(NCC(=O)N3CCC[C@H]3C#N)C2)nc1` (mixture of isomers) [Example-4, 6-((1SR,3RS)-3-{2-[(2S)-2-Cyanopyrrolidin-1-yl]-2-oxoethylamino}cyclopentyl-methylamino)nicotinonitrile dihydrochloride], 10 nM.
On the same count and under the same terms, under `N#C[C@@H]1CCCN1C(=O)CNC1CCC(CNc2ncccn2)C1` (mixture of isomers) [Example-18, (2S)-1-{2-[(3SR,1RS)-3-(2-Pyrimidinylaminomethyl)cyclopentylamino)acetyl}-pyrrolidine-2-carbonitrile] stands 9.8 nM; under `N#C[C@@H]1CCCN1C(=O)CN[C@@H]1CC[C@H](CSc2ccccc2)C1` [Example-30, (2S)-1-{2-[(3S,1R)-3-Phenylsulfanylmethylcycopentylamino]acetytl}-pyrrolidine-2-carbonitrile], 63.4 nM; under `N#Cc1ccc(NCC2CCC(NCC(=O)N3CCC[C@H]3C#N)C2)nc1` (mixture of isomers) [Example-3, 6-((1SR,3RS)-3-{2-[(2S)-2-Cyanopyrrolidin-1-yl]-2-oxoethylamino}cyclopentyl-methylamino)nicotinonitrile], 6.29 nM.
In the case of `N#C[C@@H]1CCCN1C(=O)CNC1CCC(CNc2cc(F)c(F)cc2F)C1` (mixture of isomers) [Example-27, (2S)-1-{2-[(3SR,1RS)-3-(2,4,5-Trifluoroanilinomethyl)cyclopentylamino]acetyl}-pyrrolidine-2-carbonitrile], the IC50 amounted to 17.4 nM.
Same read-out and setting: under `N#Cc1ccc(NC[C@H]2CC[C@@H](NCC(=O)N3C[C@@H](F)C[C@H]3C#N)C2)nc1` [Example-15, 6-((1S,3R)-3-{2-[(2S,4S)-2-Cyano-4-fluoropyrrolidin-1-yl]-2-oxoethylamino}cyclo-pentylmethylamino)nicotinonitrile] stands 3.17 nM; under `N#Cc1ccc(OC[C@@H]2CC[C@H](NCC(=O)N3CCC[C@H]3C#N)C2)cc1` [Example-46], 11.6 nM.
On to `N#Cc1ccc(NCC2CCC(NCC(=O)N3CCSC3)C2)nc1` (centres unmarked) [Example-2], for which the inhibition at 0.3 µM is 17%.
Take `N#Cc1ccc(NCC2CCC(NCC(=O)N3CCC[C@H]3C#N)C2)nc1` (mixture of isomers) [Example-7, 6-((1SR,3RS)-3-{2-[(2S)-2-Cyanopyrrolidin-1-yl]-2-oxoethylamino}cyclopentyl-methylamino)nicotinonitrile citrate]: the IC50 amounted to 11.7 nM.
